This series concerns Porcine alkaline phosphatase. Nature of the series: Conversion of prodrug to parent compound by alkaline phosphatase in pH 7.0 Tris-HCl buffer solution. Format: in vitro ADME. The method, then:
Phosphate ester prodrug was dissolved in pH 7.0 Tris-HCl buffer to a concentration of 0.72 mg/mL. Porcine alkaline phosphatase (1 mg/mL) was added to an aliquot of the solution. 2.5 hours after enzyme addition a sample was analyzed. The results in the Table below confirm that alkaline phosphatase is active in pH 7.0 Tris-HCl buffer and rapidly hydrolyzes the phosphate ester prodrug to the parent compound.

Structures are written as SMILES.

For the compound `COc1cnc(-n2cnc(C)n2)c2c1c(C(=O)C(=O)N1CCN(C(=O)c3ccccc3)CC1)cn2COP(=O)(O)O` [Prodrug, 1-benzoyl-4-[2-[4-methoxy-7-(3-methyl-1H-1,2,4-triazol-1-yl)-1-[(phosphonooxy)methyl]-1H-pyrrolo[2,3-c]pyridin-3-yl]-1,2-dioxoethyl]-piperazine], the Prodrug peak area is 0.0% (2.5 hr sample of solution containing enzyme (1 mg/mL)) and 99.9% (initial sample of prodrug solution (no enzyme), 0.72 mg/mL, percent of total prodrug+parent peak area).

(Values after US20150158891A1, “STABLE PHARMACEUTICAL COMPOSITION FOR OPTIMIZED DELIVERY OF AN HIV ATTACHMENT INHIBITOR” (Bristol-Myers Squibb Company, priority 2008, published 2015).)
